According to PubChem BioAssay AID256 (DTP/NCI, 2004):
Where “and” joins values, the source holds several entries; their conditions need not be identical. Equal values may be shown once. Toxic doses and inconclusive results are not listed. Rule for the calls: active = survival T/C of 150% or more; inactive = T/C below 125% in these data.

Test system: CD2F1 mice, L1210 leukemia ip, survival T/C
Assay: NCI In Vivo Anticancer Drug Screen. Data for tumor model L1210 Leukemia (intraperitoneal) in CD2F1 (CDF1) mice
Conditions: endpoint: mean survival time, higher = longer survival
Summary of the method: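 Mice carrying a transplanted tumor received test compound or vehicle alone. The value is the measurement in the treated group divided by that in the vehicle-treated control group.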

[1] = dose: 50.0 mg/kg/injection, schedule: Q01DX009 (ip), vehicle: Klucel (hydroxypropylcellulose) (HPC)
[2] = dose: 100.0 mg/kg/injection, schedule: Q01DX001 (ip), vehicle: Klucel (hydroxypropylcellulose) (HPC)
[3] = dose: 100.0 mg/kg/injection, schedule: Q01DX009 (ip), vehicle: Klucel (hydroxypropylcellulose) (HPC)
[4] = dose: 200.0 mg/kg/injection, schedule: Q01DX001 (ip), vehicle: Klucel (hydroxypropylcellulose) (HPC)
[5] = dose: 200.0 mg/kg/injection, schedule: Q01DX009 (ip), vehicle: Klucel (hydroxypropylcellulose) (HPC)
[6] = dose: 100.0 mg/kg/injection, schedule: Q04DX002 (ip), vehicle: saline with Tween-80
[7] = dose: 200.0 mg/kg/injection, schedule: Q04DX002 (ip), vehicle: saline with Tween-80
[8] = dose: 100.0 mg/kg/injection, schedule: Q01DX009 (ip), vehicle: saline with Tween-80
[9] = dose: 100.0 mg/kg/injection, schedule: Q04DX003 (ip), vehicle: saline with Tween-80
[10] = dose: 200.0 mg/kg/injection, schedule: Q01DX009 (ip), vehicle: saline with Tween-80
[11] = dose: 200.0 mg/kg/injection, schedule: Q04DX003 (ip), vehicle: saline with Tween-80
[12] = dose: 400.0 mg/kg/injection, schedule: Q01DX009 (ip), vehicle: saline with Tween-80
[13] = dose: 400.0 mg/kg/injection, schedule: Q04DX003 (ip), vehicle: saline with Tween-80
[14] = dose: 25.0 mg/kg/injection, schedule: Q01DX009 (ip), vehicle: saline with Tween-80
[15] = dose: 50.0 mg/kg/injection, schedule: Q01DX009 (ip), vehicle: saline with Tween-80
[16] = dose: 25.0 mg/kg/injection, schedule: Q04DX002 (ip), vehicle: saline with Tween-80
[17] = dose: 50.0 mg/kg/injection, schedule: Q04DX003 (ip), vehicle: saline with Tween-80
[18] = dose: 12.5 mg/kg/injection, schedule: Q04DX003 (ip), vehicle: saline with Tween-80
[19] = dose: 25.0 mg/kg/injection, schedule: Q04DX003 (ip), vehicle: saline with Tween-80
[20] = dose: 12.5 mg/kg/injection, schedule: Q01DX009 (ip), vehicle: saline with Tween-80

Measured: T/C

CN(C)N(Cc1ccccc1)/N=N/c1nc[nH]c1C(N)=O
inactive: dose: 50.0 mg/kg/injection, schedule: Q01DX001 (ip), vehicle: Klucel (hydroxypropylcellulose) (HPC) 107 % of control | [1] 105 % of control | [2] 98 % of control | [3] 96 % of control | [4] 90 % of control | [5] 107 % of control

OCC1C2C=CC(c3ccccc32)C1CO (centres undefined)
inactive: dose: 50.0 mg/kg/injection, schedule: Q04DX002 (ip), vehicle: saline with Tween-80 106 % of control | [6] 88 % of control | [7] 95 % of control

CCC(=O)N(N=O)c1ccccc1
inactive: dose: 4.7 mg/kg/injection, schedule: Q04DX003 (ip), vehicle: saline 102 % of control | dose: 9.4 mg/kg/injection, schedule: Q04DX003 (ip), vehicle: saline 107 % of control | dose: 18.8 mg/kg/injection, schedule: Q04DX003 (ip), vehicle: saline 102 % of control

Cc1ccc(NC(=O)c2ccccc2C(=O)O)cc1C
inactive: [8] 98 % of control | [9] 100 % of control | [10] 95 % of control | [11] 101 % of control | [12] 94 % of control | [13] 103 % of control

CCOC(=O)CCC1(CCC(=O)OCC)c2ccccc2-c2ccccc21
inactive: [2] 96 % of control | [4] 104 % of control | dose: 400.0 mg/kg/injection, schedule: Q01DX001 (ip), vehicle: Klucel (hydroxypropylcellulose) (HPC) 104 % of control

CCOC(=O)c1cc2ccccc2oc1=O
inactive: [14] 100 % of control | [15] 97 % of control | [8] 109 % of control

N#CCCC(C#N)(c1cccnc1)N1CCOCC1 (centres undefined)
inactive: dose: 12.5 mg/kg/injection, schedule: Q01DX009 (ip), vehicle: Klucel (hydroxypropylcellulose) (HPC) 93 % of control | dose: 25.0 mg/kg/injection, schedule: Q01DX009 (ip), vehicle: Klucel (hydroxypropylcellulose) (HPC) 97 % of control | [16] 109 % of control

O=c1oc(/C=C/c2ccccc2)nc2cc(Cl)ccc12
inactive: [9] 94 % of control | [11] 92 % of control | [13] 97 % of control

CCOC(=O)C1(C(=O)OCC)CCC(OCC)N1C(=O)c1cc2c(cc1[N+](=O)[O-])OCO2 (centres undefined)
inactive: [1] 97 % of control | [3] 101 % of control | [5] 97 % of control

O=C(O)CNCC(=O)O
inactive: [8] 93 % of control | [10] 97 % of control | [12] 98 % of control

COC(=O)C1c2ccccc2-c2ccccc21
inactive: [17] 95 % of control | [9] 103 % of control | [11] 100 % of control

CC(C)c1cc(C(C)C)c(S(=O)(=O)OCC2OC(OC3(COS(=O)(=O)c4c(C(C)C)cc(C(C)C)cc4C(C)C)OC(COS(=O)(=O)c4c(C(C)C)cc(C(C)C)cc4C(C)C)C(O)C3O)C(O)C(O)C2O)c(C(C)C)c1 (centres undefined)
inactive: [15] 98 % of control | [8] 95 % of control | [10] 102 % of control

O=C(O)c1ccc(Cl)cc1Nc1ccc(Cl)cc1
inactive: [18] 97 % of control | [19] 100 % of control | [17] 107 % of control | [9] 98 % of control

CCC(c1ccc(O)c(CN(CC)CC)c1)C(CC)c1ccc(O)c(CN(CC)CC)c1 (centres undefined)
inactive: [6] 92 % of control | [7] 92 % of control

O=C1NC(=O)/C(=C/c2ccccc2)N1
inactive: dose: 75.0 mg/kg/injection, schedule: Q04DX003 (ip), vehicle: saline sonified 100 % of control | dose: 150.0 mg/kg/injection, schedule: Q04DX003 (ip), vehicle: saline sonified 105 % of control | dose: 300.0 mg/kg/injection, schedule: Q04DX003 (ip), vehicle: saline sonified 105 % of control

CCCCCCCCCCCCOP(OCCCCCCCCCCCC)OCCCCCCCCCCCC
inactive: dose: 100.0 mg/kg/injection, schedule: Q04DX003 (ip), vehicle: alcohol 102 % of control | dose: 200.0 mg/kg/injection, schedule: Q04DX003 (ip), vehicle: alcohol 96 % of control | dose: 400.0 mg/kg/injection, schedule: Q04DX003 (ip), vehicle: alcohol 98 % of control

C(=NCCN1CCOCC1)=NC1CCCCC1
inactive: dose: 3.13 mg/kg/injection, schedule: Q01DX009 (ip), vehicle: saline with Tween-80 102 % of control | dose: 6.25 mg/kg/injection, schedule: Q01DX009 (ip), vehicle: saline with Tween-80 91 % of control | dose: 6.25 mg/kg/injection, schedule: Q04DX003 (ip), vehicle: saline with Tween-80 100 % of control | [20] 104 % of control | [18] 92 % of control

CCOS(=O)(=O)c1ccc(Cl)c([N+](=O)[O-])c1
inactive: [20] 100 % of control | [14] 105 % of control | [15] 94 % of control and 100 % of control | [9] 103 % of control

O=[N+]([O-])c1ccc(/C=C/C=C/c2ccc(Cl)c(S(=O)(=O)F)c2)c(Cl)c1
inactive: [8] 97 % of control | [9] 102 % of control | [10] 103 % of control | [11] 102 % of control | [12] 106 % of control | [13] 102 % of control

CC1C2C=CC1C(c1c3ccc(=O)cc-3oc3cc(O)ccc13)C2C(=O)O (centres undefined)
inactive: [9] 103 % of control | [11] 97 % of control | [13] 111 % of control

C(CC1CCNCC1)CC1CCNCC1
inactive: [19] 95 % of control | [17] 87 % of control

[Co].[N-]=C=S.[N-]=C=S.[N-]=C=S.[N-]=C=S
inactive: dose: 25.0 mg/kg/injection, schedule: Q04DX002 (ip), vehicle: saline 104 % of control | dose: 50.0 mg/kg/injection, schedule: Q04DX002 (ip), vehicle: saline 104 % of control | dose: 100.0 mg/kg/injection, schedule: Q04DX002 (ip), vehicle: saline 117 % of control and 112 % of control

COc1ccccc1C(=O)NS(=O)(=O)c1ccc(Cl)cc1
inactive: dose: 100.0 mg/kg/injection, schedule: Q01DX009 (ip), vehicle: acetone 101 % of control | dose: 200.0 mg/kg/injection, schedule: Q01DX009 (ip), vehicle: acetone 107 % of control

CCCCCC(O)C(C)C(C)C (centres undefined)
inactive: [15] 100 % of control | [8] 95 % of control | [10] 103 % of control

Cc1cc(OCC2=NCCN2)c(C)c(C)c1Cl
inactive: dose: 6.25 mg/kg/injection, schedule: Q04DX002 (ip), vehicle: saline with Tween-80 94 % of control | dose: 12.5 mg/kg/injection, schedule: Q04DX002 (ip), vehicle: saline with Tween-80 94 % of control | [16] 97 % of control

Cc1ccc2c(c1)C(C(F)(F)F)(C(F)(F)F)OC(C(F)(F)F)(C(F)(F)F)N2
inactive: dose: 100.0 mg/kg/injection, schedule: Q01DX001 (ip), vehicle: saline with Tween-80 104 % of control | [8] 95 % of control | dose: 200.0 mg/kg/injection, schedule: Q01DX001 (ip), vehicle: saline with Tween-80 103 % of control | [10] 102 % of control | dose: 400.0 mg/kg/injection, schedule: Q01DX001 (ip), vehicle: saline with Tween-80 95 % of control

O=C(COc1ccc(Cl)cc1Cl)OCCI
inactive: [6] 97 % of control | [7] 102 % of control

O=C(CBr)c1cc2ncccc2c2ccccc12
inactive: dose: 100.0 mg/kg/injection, schedule: Q01DX009 (ip), vehicle: other 101 % of control

CC1(C)N=C(N)N=C(N)N1c1cccc(OCCOc2ccc(NC(=O)CBr)cc2)c1
inactive: dose: 6.25 mg/kg/injection, schedule: Q01DX009 (ip), vehicle: other 102 % of control | dose: 12.5 mg/kg/injection, schedule: Q01DX009 (ip), vehicle: other 113 % of control | dose: 25.0 mg/kg/injection, schedule: Q01DX009 (ip), vehicle: other 110 % of control | dose: 50.0 mg/kg/injection, schedule: Q01DX009 (ip), vehicle: other 113 % of control

CC(=O)OC1CCC2(C)C(CCC3C4CC=C(C(C)=O)C4(C)CCC32)C1 (centres undefined)
inactive: [8] 92 % of control | [10] 92 % of control | [12] 89 % of control

CCCCCc1ccc(C(C)=O)cc1
inactive: [8] 103 % of control | [10] 103 % of control | [12] 88 % of control

Cc1cc(C)[nH]n1
inactive: [9] 95 % of control | [11] 93 % of control | [13] 97 % of control

CSCCC(NC=O)C(=O)O (centres undefined)
inactive: dose: 12.5 mg/kg/injection, schedule: Q01DX001 (ip), vehicle: saline 98 % of control | dose: 25.0 mg/kg/injection, schedule: Q01DX001 (ip), vehicle: saline 93 % of control | dose: 50.0 mg/kg/injection, schedule: Q01DX001 (ip), vehicle: saline 106 % of control
